The values below come from patent US7910582B2, “Cyclopropyl amines as modulators of the histamine H3 receptor” (Janssen Pharmaceutica NV, priority 2005, dated 2011).

A short description of data set [1]: Measured pKa, log P and log D (determined by pION, Inc.). It is filed as physicochemical. Conditions: for pKa: read-out: pKa (meas.). How it is done:
Measured pKa, log P, and log D values were determined by pION, Inc. (Woburn, Mass.).

The target in data set [2] is T1, Human H3 Receptor (Homo sapiens, UniProt Q9Y5N1).
T1 construct: expressed in transfected cells
T1 sequence (Q9Y5N1 whole entry): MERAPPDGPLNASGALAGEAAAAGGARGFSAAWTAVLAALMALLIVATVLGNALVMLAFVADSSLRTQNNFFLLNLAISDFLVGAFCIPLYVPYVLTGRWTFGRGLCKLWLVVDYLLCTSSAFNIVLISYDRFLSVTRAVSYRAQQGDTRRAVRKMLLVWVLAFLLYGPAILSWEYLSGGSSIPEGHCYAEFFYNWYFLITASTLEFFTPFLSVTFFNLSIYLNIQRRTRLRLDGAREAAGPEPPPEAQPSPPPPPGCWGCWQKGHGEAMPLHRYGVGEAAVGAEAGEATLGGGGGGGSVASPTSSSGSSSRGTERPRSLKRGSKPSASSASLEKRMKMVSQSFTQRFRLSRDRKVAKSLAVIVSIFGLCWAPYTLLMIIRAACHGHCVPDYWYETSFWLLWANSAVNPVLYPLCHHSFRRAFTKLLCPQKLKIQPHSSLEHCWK
Put plainly: [3H]-N-Methylhistamine binding, membranes of H3 receptor-expressing SK-N-MC cells. The note with it: 0.8 nM [3H]-N-methylhistamine, 60 min at 25° C., average of results; read-out: Ki. As for the experimental part: (§1) Cells were grown to about 70% to 80% confluence and removed from the plate with trypsin and pelleted in a clinical centrifuge. The pellet was then re-suspended in 400 μL of complete media and transferred to an electroporation cuvette with a 0.4 cm gap between the electrodes (Bio-Rad #165-2088). One μg supercoiled H3 receptor cDNA was added to the cells and mixed gently. The voltage for the electroporation was set at 0.25 kV and the capacitance was set at 960 μF. After electroporation the cells were diluted with 10 mL of complete media and were plated onto four 10 cm dishes at the following ratios: 1:20, 1:10, 1:5, and 1:2. The cells were allowed to recover for 24 h before adding 600 μg G-418. Colonies that survived selection were grown and tested. SK-N-MC cells were used because they give efficient coupling for inhibition of adenylate cyclase. The clones that gave the most robust inhibition of adenylate cyclase in response to histamine were used for further study.
Cell pellets from histamine H3 receptor-expressing SK-N-MC cells were homogenized in 50 mM TrisHCl/0.5 mM EDTA. Supernatants from an 800 g spin were collected and were recentrifuged at 30,000 g for 30 min. Pellets were re-homogenized in 50 mM Tris/5 mM EDTA (pH 7.4). Membranes were incubated with 0.8 nM [^3H]-N-methylhistamine plus/minus test compounds for 60 min at 25° C. and were harvested by rapid filtration over GF/C glass fiber filters (pretreated with 0.3% polyethylenimine) followed by four washes with buffer. Filters were added to 5 mL of scintillation cocktail, and the signal was then counted on a liquid scintillation counter.

The target in data set [3] is T1, Human H3 Receptor. Briefly: Cyclic AMP accumulation, SK-N-MC cells with reporter construct and human H3 receptor (pA2). The data set is classed as cell-based. Conditions: pA2, average of results. As for the experimental part: as §1, with “The pellet was then re-suspended in 400 μL of complete media and transferred to an electroporation cuvette with a 0.4 cm gap between the electrodes (Bio-Rad #165-2088).” left out, “The cells were allowed to recover for 24 h before adding 600 μg G-418.” left out
Sublines of SK-N-MC cells were created that expressed a reporter construct and the human H3 receptor.

The nature of data set [4]: Pharmacokinetics and bioanalysis in the rat. Conditions: for AUC(0-inf): read-out: AUCINF (h-μmol/mL). The data set is classed as in vivo, male Sprague Dawley Rats. How it is done: One group of six male Sprague Dawley Rats (approx. 300 g body weight; three animals per time point) was used. They were group-housed, provided food and water ad libitum, and were maintained on a 12-h light and dark cycle. Animals were acclimatized for at least 7 days after receipt from the vendor prior to investigations.
For oral dosing, test compounds were formulated at 1 mg/mL in 0.5% hydroxypropyl methyl cellulose and delivered at a dose of 10 mg/kg. Citric acid salt forms (prepared as described for Example 1B) of the test compounds were used. Animals received a bolus dose of 10 mg/kg (10 mL/kg) for each compound via a 16 gauge intragastric gavage. For intravenous dosing, test compounds were formulated at 1 mg/mL in 5% dextrose in water and dosed at 1 mg/kg (1 mL/kg) with a bolus intravenous dose via a 24-gauge Terumo® Surflo® catheter in the lateral tail vein. All dosing solutions were prepared immediately prior to injection.
Blood samples (250 μL) were taken from the lateral tail vein into heparinized Natelson blood collection tubes and expelled into 1.5 mL mcirocentrifuge tubes. The blood samples were centrifuged for 5 min at 14,000 rpm in a micro-centrifuge. Plasma was retained and kept in a −20° C. freezer until analysis by LC-MS/MS.
Data analysis was performed using WinNonlin version 3.3 or 4.0.1. A non -compartmental model (#200 for Extravascular administration and #201 for i.v.) was used to determine the pharmacokinetic parameters shown in Tables 4 and 5 (NA=not applicable or not determined).

The mark [5] stands for this setting: compared with isopropyl / cyclobutyl analogs.
Where [6] appears, read: male, Sprague Dawley, iv, i.v. 1 mg/kg, citric acid salt, plasma.
[7] abbreviates: male, Sprague Dawley, oral 10 mg/kg, citric acid salt, plasma.
Setting [8] is: oral 10 mg/kg, citric acid salt.

“Also recorded” adds a separate entry of the source. Read-outs that look alike come from different tables or passages of the source.

One may read the logD as lipophilicity at a set pH, counting ionised and neutral species. Low readings indicate lower lipophilicity, high ones higher lipophilicity. The term logP denotes a log measure of how a compound divides between an organic and an aqueous phase. Low readings indicate a more hydrophilic compound, high ones a more lipophilic compound. As a reminder, the pKa is the pH at which an ionisable group is half protonated. The term Ki denotes the equilibrium dissociation constant of an inhibitor or competing ligand from its target. Consider `O=C(c1ccc(CN2CCOCC2)cc1)N1CCN(C2CCC2)CC1` [Comparative Example 2, (4-Cyclobutyl-piperazin-1-yl)-(4-morpholin-4-ylmethyl-phenyl) -methanone], for which, in data set [1], the pH-dependent lipophilicity (logD) is 1.77, the logP came out at 2.09 and the pKa was found to be 7.4. For the same compound, the pKa in data set [1] (second value) is 6.5. Also, the Ki at Human H3 Receptor [2] turned out to be 1 nM. The Kb at Human H3 Receptor [3] is 0.316 nM.

Consider `O=C(c1ccc(CN2CCOCC2)cc1)N1CCN(C2CC2)CC1` [Example 1, (4-Cyclopropyl-piperazin-1-yl)-(4-morpholin-4-ylmethyl-phenyl) -methanone], for which, in data set [1], the logD was 0.86; the logP turned out to be 0.89; the “measured pKa (basicity) relative to calculated value and to isopropyl / cyclobutyl amine analogs” value is reported as “significantly lower; also recorded: significant decrease in basicity”; the pKa was 6.5. For the same compound, the pKa in data set [1] (second value) amounted to 5.3. Also, on Human H3 Receptor [2], the inhibition constant Ki amounted to 5.4 nM. The Kb on Human H3 Receptor [3] is 3.98 nM.

The term Cmax denotes the highest concentration seen after dosing. In general, half-life refers to how long it takes for the measured level to halve. Usually Tmax stands for the time at which the peak concentration occurs. As to `O=C(O)CC(O)(CC(=O)O)C(=O)O.O=C(c1ccc(CN2CCC(F)CC2)cc1)N1CCN(C2CC2)CC1` [Example 2B, (4-Cyclopropyl-piperazin-1-yl)-[4-(4-fluoro-piperidin-1-ylmethyl)-phenyl]-methanone citrate salt], the inhibitory constant (Ki) on Human H3 Receptor [2] was 2 nM. Also, the Kb at Human H3 Receptor [3] was 1 nM. Besides, in data set [4] (setting [5]), the “half-life (T1/2) relative to the comparative examples” value was “shorter T1/2” and the “volume of distribution (Vd) relative to the comparative examples” value was “lower Vd”. Besides, the “CI” value in data set [4] (i.v. 1 mg/kg, citric acid salt) is 41.4 mL/min/kg. In data set [4] (setting [6]), the Cmax was 3780 nM, the half-life is 1.11 h and the AUC(0-inf) was 1.37 µM·h. In data set [4] (setting [7]), the highest concentration (Cmax) came to 420 nM, the Tmax came out at 1.67 h, the half-life was 2.72 h and the AUC(0-inf) was 1.91 µM·h. Moreover, in data set [4] (male, Sprague Dawley, plasma, iv, i.v. 1 mg/kg, citric acid salt, read-out: Vd), the Vd stood at 3.94 L/kg. Moreover, in data set [4] (setting [8]), the “CI” value is given as 431 mL/min/kg and the “Vd” value turned out to be 112 L/kg.
